This note sets out measurements from patent publication US11566057B2, “Long-acting co-agonists of the glucagon and GLP-1 receptors” (Merck Sharp & Dohme Corp., priority 2017, dated 2023).

For assay [1], the target named is T1, human GCGR (Homo sapiens, UniProt P47871).
T1 construct: expressed in transfected cells; growth medium holds Blasticidin and Hygromycin
In words: cAMP activity assay at the Glucagon receptor (GCGR). Format: cell-based. Conditions: for hGCGR/hGLP1R (hTone): ratio of GCGR EC50 to GLP1R EC50. In a few lines: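 Peptides serially diluted from DMSO (10 points) and added to frozen-stock cells bearing human GLP1R (10,000 cells/well) or GCGR (30,000 cells/well), 1 h at RT, dark. EC50 by four-parameter logistic fit of HitHunter cAMPXS luminescence, read following overnight RT incubation.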

For assay [2], the target named is T2, human GLP1R (Homo sapiens, UniProt P43220).
T2 construct: expressed in transfected cells; growth medium holds Blasticidin and Hygromycin
Description: cAMP activity assay at the GLP-1 receptor (GLP1R). It is filed as cell-based. As to the method:
Activity of the peptides at the Glucagon receptor (GCGR) and GLP-1 receptor (GLP1R) was measured in a cAMP activity assay.
GCG/GLP-1 receptor co-agonist peptides were dissolved in 100% DMSO (dimethyl sulfoxide) and serially diluted to generate 10 point titrations. The peptide solutions were then transferred into 384-well assay plates (150 nL/well). Assay ready frozen cells expressing human GLP1R or human GCGR were suspended in growth media consisting of DMEM medium (GIBCO®), 10% FBS (GIBCO®), 1×NEAA(GIBCO®), 1×P/S (GIBCO®), 10 ug/mL Blasticidin (GIBCO®) and 200 μg/mL Hygromycin (GIBCO®). […] The cell suspensions (15 μL) were then added to the assay plates containing the peptide solutions (30,000 cells/well for human GCGR; 10,000 cells/well for human GLP1R). The cells were incubated for 1 hour at room temperature in the dark. Production of cAMP was determined using HitHunter™ cAMPXS kits (DiscoverX) following manufacturer protocol. The plates were incubated for overnight at room temperature in the dark. Luminescence was measured using an EnVision Multilabel plate reader (Perkin Elmer). Native GLP-1 and Glucagon (Bachem) are used as control peptides. EC50 values were calculated using uses a 4 parameter logistic fit based on the Levenberg-Marquardt algorithm.

The mark [3] stands for this setting: cells expressing human GCGR, cAMP production, buffer with or without 20% human serum (not stated which), read-out: GCGR EC50 human.
[4] abbreviates: summary statement: EC50 at each of the glucagon and GLP-1 receptors, read-out: EC50 at the glucagon receptor.
Setting [5] is: summary statement: EC50 at each of the glucagon and GLP-1 receptors, read-out: EC50 at the GLP-1 receptor.

Like-named read-outs stand apart in the source and are kept apart here. Numbered stars: 1 amine (or outer) side, 2 acyl side, 3 side chain; on linkers, the order of the positions; unused ones are H or OH. Square brackets hold non-standard residues; d marks the D form. Side chains are listed from the residue outwards. Peptide text beside a SMILES is read from it. * marks the point of attachment. C20 diacid = O=C(O)CCCCCCCCCCCCCCCCCCC(=O)*; Phe(4-CH2NH2) = NCc1ccc(C[C@H](N)C(=O)O)cc1; C18 diacid = O=C(O)CCCCCCCCCCCCCCCCC(=O)*; γGlu = O=C(O)[C@H](CCC(=O)[*:2])N[*:1]; Met(O2) = CS(=O)(=O)CC[C@H](N)C(=O)O; αMeS = C[C@](N)(CO)C(=O)O; AEEA = NCCOCCOCC(=O)O; Aib = CC(C)(N)C(=O)O Bounds are passed on as bounds.

T2 sequence (P43220 24-463): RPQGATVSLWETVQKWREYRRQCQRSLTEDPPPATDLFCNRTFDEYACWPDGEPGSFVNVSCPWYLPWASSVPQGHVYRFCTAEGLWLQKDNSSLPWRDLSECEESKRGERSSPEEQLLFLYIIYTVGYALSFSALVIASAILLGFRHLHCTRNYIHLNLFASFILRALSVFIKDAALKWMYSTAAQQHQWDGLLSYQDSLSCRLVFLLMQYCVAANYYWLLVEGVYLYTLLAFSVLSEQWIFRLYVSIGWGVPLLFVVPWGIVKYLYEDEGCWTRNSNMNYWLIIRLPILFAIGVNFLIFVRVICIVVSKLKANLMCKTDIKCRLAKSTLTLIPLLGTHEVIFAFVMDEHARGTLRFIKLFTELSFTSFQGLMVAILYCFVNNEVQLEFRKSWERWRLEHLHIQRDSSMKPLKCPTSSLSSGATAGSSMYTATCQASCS
T1 sequence (P47871 26-477): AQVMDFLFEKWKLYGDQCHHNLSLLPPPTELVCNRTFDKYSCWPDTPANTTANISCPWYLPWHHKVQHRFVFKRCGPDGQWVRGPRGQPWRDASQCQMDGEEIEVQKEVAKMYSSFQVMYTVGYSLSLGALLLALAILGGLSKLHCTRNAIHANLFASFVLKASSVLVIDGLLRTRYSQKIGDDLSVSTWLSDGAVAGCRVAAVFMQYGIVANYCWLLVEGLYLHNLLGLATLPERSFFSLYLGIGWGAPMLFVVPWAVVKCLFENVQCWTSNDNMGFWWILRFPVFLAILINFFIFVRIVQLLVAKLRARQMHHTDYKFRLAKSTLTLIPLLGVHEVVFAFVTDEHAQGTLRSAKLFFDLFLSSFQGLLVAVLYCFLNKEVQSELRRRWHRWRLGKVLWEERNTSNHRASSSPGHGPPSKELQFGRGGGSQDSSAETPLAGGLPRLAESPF

A word on the EC50: it is the concentration at which the effect is half-maximal. Regarding `CC(C)C[C@H](NC(=O)[C@H](Cc1c[nH]c2ccccc12)NC(=O)[C@H](CCC(N)=O)NC(=O)[C@@H](NC(=O)[C@H](Cc1ccccc1)NC(=O)[C@H](CC(=O)O)NC(=O)[C@H](CCCCNC(=O)COCCOCCNC(=O)COCCOCCNC(=O)CC[C@H](NC(=O)CCCCCCCCCCCCCCCCCCC(=O)O)C(=O)O)NC(=O)[C@H](C)NC(=O)[C@H](C)NC(=O)[C@H](CCCNC(=N)N)NC(=O)C(C)(C)NC(=O)[C@H](CC(=O)O)NC(=O)[C@H](CC(C)C)NC(=O)[C@H](Cc1ccc(O)cc1)NC(=O)[C@H](CCCCN)NC(=O)[C@H](CO)NC(=O)[C@H](Cc1ccc(O)cc1)NC(=O)[C@H](CC(=O)O)NC(=O)[C@H](CO)NC(=O)[C@@H](NC(=O)[C@H](Cc1ccccc1)NC(=O)[C@@H](NC(=O)CNC(=O)[C@H](CCC(N)=O)NC(=O)[C@](C)(CO)NC(=O)[C@@H](N)Cc1c[nH]cn1)[C@@H](C)O)[C@@H](C)O)C(C)C)C(=O)N[C@@H](CCS(C)(=O)=O)C(=O)N[C@@H](CC(=O)O)C(=O)N[C@H](C(N)=O)[C@@H](C)O` [TP592] (H-H[αMeS]QGTFTSDYSKYLD[Aib]RAAK([AEEA-AEEA-γGlu-C20 diacid])DFVQWL[Met(O2)]DT-NH2; N-terminus assumed), the results for the half-maximal effective concentration (EC50) in assay [1] (setting [3]), in assay [1] (setting [4]) and in assay [2] (setting [5]) were 3.39 nM, less than 5 nM and less than 5 nM, respectively. Also, the “hGCGR/hGLP1R (hTone)” value in assay [1] stood at 1.4.

On to `CC(C)C[C@H](NC(=O)[C@H](Cc1ccc(O)cc1)NC(=O)[C@H](CCCCN)NC(=O)[C@H](CO)NC(=O)[C@H](Cc1ccc(O)cc1)NC(=O)[C@H](CC(=O)O)NC(=O)[C@H](CO)NC(=O)[C@@H](NC(=O)[C@H](Cc1ccccc1)NC(=O)[C@@H](NC(=O)CNC(=O)[C@H](CCC(N)=O)NC(=O)C(C)(C)NC(=O)[C@@H](N)Cc1c[nH]cn1)[C@@H](C)O)[C@@H](C)O)C(=O)N[C@@H](CC(=O)O)C(=O)N[C@@H](C)C(=O)N[C@@H](CCCNC(=N)N)C(=O)N[C@@H](C)C(=O)N[C@@H](C)C(=O)N[C@@H](CCC(N)=O)C(=O)N[C@@H](CC(=O)O)C(=O)N[C@@H](Cc1ccccc1)C(=O)N[C@H](C(=O)N[C@@H](Cc1ccc(CNC(=O)COCCOCCNC(=O)CC[C@H](NC(=O)CCCCCCCCCCCCCCCCC(=O)O)C(=O)O)cc1)C(=O)N[C@@H](Cc1c[nH]c2ccccc12)C(=O)N[C@@H](CC(C)C)C(=O)N[C@@H](CC(C)C)C(=O)N[C@@H](CC(=O)O)C(=O)N[C@H](C(N)=O)[C@@H](C)O)C(C)C` [TP638] (H-H[Aib]QGTFTSDYSKYLDARAAQDFV[Phe(4-CH2NH2)]([AEEA-γGlu-C18 diacid])WLLDT-NH2), for which, in assay [1], the “hGCGR/hGLP1R (hTone)” value amounted to 3.3. Further, the EC50 in assay [1] (setting [4]) and in assay [2] (setting [5]) was less than 5 nM in each case.

In the case of `CC(C)C[C@H](NC(=O)[C@H](Cc1ccc(O)cc1)NC(=O)[C@H](CCCCN)NC(=O)[C@H](CO)NC(=O)[C@H](Cc1ccc(O)cc1)NC(=O)[C@H](CC(=O)O)NC(=O)[C@H](CO)NC(=O)[C@@H](NC(=O)[C@H](Cc1ccccc1)NC(=O)[C@@H](NC(=O)CNC(=O)[C@H](CCC(N)=O)NC(=O)C(C)(C)NC(=O)[C@@H](N)Cc1c[nH]cn1)[C@@H](C)O)[C@@H](C)O)C(=O)N[C@@H](CC(=O)O)C(=O)N[C@@H](CO)C(=O)N[C@@H](CCCNC(=N)N)C(=O)N[C@@H](C)C(=O)N[C@@H](C)C(=O)N[C@@H](CCCCNC(=O)COCCOCCNC(=O)COCCOCCNC(=O)CC[C@H](NC(=O)CCCCCCCCCCCCCCCCCCC(=O)O)C(=O)O)C(=O)N[C@@H](CC(=O)O)C(=O)N[C@@H](Cc1ccccc1)C(=O)N[C@H](C(=O)N[C@@H](CCC(N)=O)C(=O)N[C@@H](Cc1c[nH]c2ccccc12)C(=O)N[C@@H](CC(C)C)C(=O)N[C@@H](CCS(C)(=O)=O)C(=O)N[C@@H](CC(=O)O)C(=O)N[C@H](C(N)=O)[C@@H](C)O)C(C)C` [TP577] (H-H[Aib]QGTFTSDYSKYLDSRAAK([AEEA-AEEA-γGlu-C20 diacid])DFVQWL[Met(O2)]DT-NH2; N-terminus assumed), the half-maximal effective concentration (EC50) in assay [1] (setting [3]) was 4.54 nM; in assay [1] (setting [4]), less than 5 nM; in assay [2] (setting [5]), less than 5 nM. Moreover, the “hGCGR/hGLP1R (hTone)” value in assay [1] stood at 2.7.

In the case of `CC(C)C[C@H](NC(=O)[C@H](Cc1ccc(O)cc1)NC(=O)[C@H](CCCCN)NC(=O)[C@H](CO)NC(=O)[C@H](Cc1ccc(O)cc1)NC(=O)[C@H](CC(=O)O)NC(=O)[C@H](CO)NC(=O)[C@@H](NC(=O)[C@H](Cc1ccccc1)NC(=O)[C@@H](NC(=O)CNC(=O)[C@H](CCC(N)=O)NC(=O)C(C)(C)NC(=O)[C@@H](N)Cc1c[nH]cn1)[C@@H](C)O)[C@@H](C)O)C(=O)N[C@@H](CC(=O)O)C(=O)N[C@@H](C)C(=O)N[C@@H](CCCNC(=N)N)C(=O)N[C@@H](C)C(=O)N[C@@H](C)C(=O)N[C@@H](CCC(N)=O)C(=O)N[C@@H](CC(=O)O)C(=O)N[C@@H](Cc1ccccc1)C(=O)N[C@H](C(=O)N[C@@H](Cc1ccc(CNC(=O)COCCOCCNC(=O)COCCOCCNC(=O)CC[C@H](NC(=O)CCCCCCCCCCCCCCCCCCC(=O)O)C(=O)O)cc1)C(=O)N[C@@H](Cc1c[nH]c2ccccc12)C(=O)N[C@@H](CC(C)C)C(=O)N[C@@H](CC(C)C)C(=O)N[C@@H](CC(=O)O)C(=O)N[C@H](C(N)=O)[C@@H](C)O)C(C)C` [TP584] (H-H[Aib]QGTFTSDYSKYLDARAAQDFV[Phe(4-CH2NH2)]([AEEA-AEEA-γGlu-C20 diacid])WLLDT-NH2), the “hGCGR/hGLP1R (hTone)” value in assay [1] is 4.6. The EC50 in assay [1] (setting [4]) and in assay [2] (setting [5]) was less than 5 nM each time.

As for `CC(C)C[C@H](NC(=O)[C@H](Cc1c[nH]c2ccccc12)NC(=O)[C@H](CCC(N)=O)NC(=O)[C@@H](NC(=O)[C@H](Cc1ccccc1)NC(=O)[C@H](CC(=O)O)NC(=O)[C@H](CCCCNC(=O)COCCOCCNC(=O)COCCOCCNC(=O)CC[C@H](NC(=O)CCCCCCCCCCCCCCCCCCC(=O)O)C(=O)O)NC(=O)[C@H](C)NC(=O)[C@H](C)NC(=O)[C@H](CCCNC(=N)N)NC(=O)C(C)(C)NC(=O)[C@H](CC(=O)O)NC(=O)[C@H](CC(C)C)NC(=O)[C@H](Cc1ccc(O)cc1)NC(=O)[C@H](CCCCN)NC(=O)[C@H](CO)NC(=O)[C@H](Cc1ccc(O)cc1)NC(=O)[C@H](CC(=O)O)NC(=O)[C@H](CO)NC(=O)[C@@H](NC(=O)[C@H](Cc1ccccc1)NC(=O)[C@@H](NC(=O)CNC(=O)[C@H](CCC(N)=O)NC(=O)[C@](C)(CO)NC(=O)[C@@H](N)Cc1c[nH]cn1)[C@@H](C)O)[C@@H](C)O)C(C)C)C(=O)N[C@@H](CCS(C)(=O)=O)C(=O)N[C@@H](CC(=O)O)C(=O)N[C@H](C(N)=O)[C@@H](C)O` [TP593] (H-H[αMeS]QGTFTSDYSKYLD[Aib]RAAK([AEEA-AEEA-γGlu-C20 diacid])DFVQWL[Met(O2)]DT-NH2), the EC50 in assay [1] (setting [3]) was determined as 0.73 nM; in assay [2] (cells expressing human GLP1R, cAMP production, buffer with or without 20% human serum (not stated which), read-out: GLP1R EC50 human), 4.95 nM. The “hGCGR/hGLP1R (hTone)” value in assay [1] is reported as less than 0.15.
